This is an account of results in patent US7994360B2, “Benzofuran compounds” (XTL Biopharmaceuticals Ltd., priority 2005, dated 2011).

The test system of one data set is Huh-Luc-Neo cells. The data set can be described thus: CellTiter-Glo Cell Viability Assay. The data set is classed as cell-based, human. Particulars: inhibition of cell viability; for Toxicity % Inhibition at 50uM (2 doses): conditions identical to Replicon RNA assay; for Toxicity % Inhibition at 100 uM (1 dose): conditions identical to Luciferase assay (48 h).
For data set [1], the system named is HCV Replicon (HCV IRES driven luciferase reporter) in Huh-Luc-Neo cells. The data set can be described thus: HCV Replicon Luciferase Assay. Particulars: Hepatitis C virus, 48 h, read-out: Luciferase IC50. (Replicon systems follow genome replication, usually without infectious particles.)
In data set [2] the test system is HCV Replicon (HCV RNA) in Huh-Luc-Neo cells. The data set is described as follows: HCV Replicon RNA Assay (Taqman quantitative PCR of HCV RNA). Particulars: Hepatitis C virus, compound added day 0 and day 1, HCV RNA by quantitative PCR, no unit printed in table (text gives hit threshold in μM). The data set is classed as cell-based. The source says:
Day 2, RNA Isolation and cDNA Synthesis: The cells are washed with 1× Phosphate Buffered Saline (PBS) once.

Turning to `CC(=O)c1ccc(-c2c(-c3ccccc3C(F)(F)F)oc3c(C#Cc4ccccc4Cl)cc(CO)cc23)cc1` [VQ–36167], the “Toxicity % Inhibition at 50uM (2 doses)” value in the data set with Huh-Luc-Neo cells worked out at 20.2%. Besides, the “Toxicity % Inhibition at 100 uM (1 dose)” value in the data set on Huh-Luc-Neo cells turned out to be 33.2%. The concentration for half-maximal inhibition (IC50) worked out at 12.2 µM in data set [1] and 1.61 µM in data set [2].

On to `CC(=O)c1ccc(-c2c(-c3ccccc3Cl)oc3c(C#Cc4ccccc4Cl)cc(CO)cc23)cc1` [VQ–36165], for which the “Toxicity % Inhibition at 50uM (2 doses)” value in the data set on Huh-Luc-Neo cells was found to be 5.7%. Besides, the “Toxicity % Inhibition at 100 uM (1 dose)” value in the data set with Huh-Luc-Neo cells is recorded as 10.5%. The IC50 is 5.12 µM in data set [1] and 1.31 µM in data set [2].

The IC50 is the concentration that gives 50% inhibition.
